Read-outs that look alike come from different tables or passages of the source.
Assays:
Euschistus heros = test: Spray of cotton seedlings, infestation with adults of Euschistus heros, alive insects and Abbott relative efficacy (Example-2, Example-3); format: in vivo; conditions: for Relative Efficacy 1DAI / Relative Efficacy 3DAI: Abbott's formula; for No of alive insects 1DAI / No of alive insects 3DAI: ten adults per plant, mean of 4 replicates
Procedure: Relative efficacy (E) values were calculated according to Abbot's formula
C is the number of alive insects in untreated controls, and G is the number of alive insects in plants treated with components of the ginkgo tree.
Fibermax™ LibertyLink™ cotton, and Bollgard II™ cotton seedlings were sprayed with 2 ml of compositions comprising either no component of the ginkgo tree, or bilobalide at a concentration of 150 ppm, or 100 ppm. Plants were allowed to dry and subsequently infested with ten adults of Euschistus heros. Four replicate measurement on different plants were made for each measurement. One day after infestation (1 DAI), and three days after infestation (3 DAI) the number of live and dead insects was determined. The mean number of alive insects, as well as the relative efficacy values (E) according to Abbott's formula were gathered in Table E, wherein the number of alive insects in untreated controls (C) was the value of the same plant without the application of bilobalide.
The experiment as described in Example-2 was repeated with ginkgolide A in a concentration of 250 ppm. […] The mean number of alive insects, as well as the relative efficacy values (E) according to Abbott's formula were gathered in Table F, wherein the number of alive insects in untreated controls (C) was the value of the same plant without the application of ginkgolide A.

Nezara viridula = test: Foliar spray of cotton plants, infestation with Nezara viridula, mortality after three days (Example-1); format: in vivo; conditions: for mortality at 100 ppm: Nezara viridula, foliar, 72 h
Procedure: Cotton plants were grown to growth stage BBCH 12. The cotton plants were then sprayed with 300 l/ha of aqueous compositions comprising either no component of the ginkgo tree, 300 ppm of ginkgolide A, or 100 ppm of bilobalide. The plants were then infested with five insects (either adult, or 4th instar nymphs) of Nezara viridula insects. Insects were contained on the plant using mesh organza bags. Three replicate measurement on different plants were made for each measurement. Three days after infestation, the number of live and dead insects was determined. The mean mortality values were gathered in Table D.

[1] = Fibermax LibertyLink cotton, 100 ppm
[2] = Fibermax LibertyLink cotton, 150 ppm
[3] = Fibermax LibertyLink cotton, 250 ppm

What does the source list for CC(C)(C)[C@]1(O)C[C@@H]2OC(=O)C[C@@]23C(=O)O[C@@H]2OC(=O)[C@H](O)[C@]213 [Bilobalide, (3aS,5aR,8aS,9R,10aR)-9-tert-butyl-8,9-dihydroxydihydro-9H-furo[2,3-b]furo[3′,2′; 2,3]cyclopenta[1,2-c]furan-2,4,7(3H,8H)-trione]?
Relative Efficacy 1DAI (Euschistus heros; Bollgard II cotton, 100 ppm): 78%; No of alive insects 1DAI (Euschistus heros; Bollgard II cotton, 100 ppm): 2.3; Relative Efficacy 3DAI (Euschistus heros; Bollgard II cotton, 100 ppm): 98%; No of alive insects 3DAI (Euschistus heros; Bollgard II cotton, 100 ppm): 0.3; Relative Efficacy 1DAI (Euschistus heros; Bollgard II cotton, 150 ppm): 75%; No of alive insects 1DAI (Euschistus heros; Bollgard II cotton, 150 ppm): 2.5; Relative Efficacy 3DAI (Euschistus heros; Bollgard II cotton, 150 ppm): 100%; No of alive insects 3DAI (Euschistus heros; Bollgard II cotton, 150 ppm): 0.0; Relative Efficacy 1DAI (Euschistus heros; [1]): 68%; No of alive insects 1DAI (Euschistus heros; [1]): 3.3; Relative Efficacy 3DAI (Euschistus heros; [1]): 98%; No of alive insects 3DAI (Euschistus heros; [1]): 0.3; Relative Efficacy 1DAI (Euschistus heros; [2]): 70%; No of alive insects 1DAI (Euschistus heros; [2]): 3.0; Relative Efficacy 3DAI (Euschistus heros; [2]): 100%; No of alive insects 3DAI (Euschistus heros; [2]): 0.0; mortality at 100 ppm (Nezara viridula; read-out: Mortality of 4th instar nymphs): 92.9%; mortality at 100 ppm (Nezara viridula; read-out: Mortality of Adults): 53.3%

How did the “Relative Efficacy 1DAI” value (Euschistus heros; Bollgard II cotton, 250 ppm) turn out when C[C@@H]1C(=O)O[C@H]2C[C@@]34[C@H]5C[C@@H](C(C)(C)C)[C@]36[C@@H](OC(=O)[C@@H]6O)O[C@@]4(C(=O)O5)[C@]21O [Ginkgolide A] was run?
Its value is 5%.

What about the “No of alive insects 1DAI” value (Euschistus heros; Bollgard II cotton, 250 ppm) of the same molecule?
Its value is 9.5.

What about the “Relative Efficacy 3DAI” value (Euschistus heros; Bollgard II cotton, 250 ppm) of the same molecule?
The value was 33%.

What about the “No of alive insects 3DAI” value (Euschistus heros; Bollgard II cotton, 250 ppm) of the same molecule?
The value was 6.8.

What about the “Relative Efficacy 1DAI” value (Euschistus heros; [3]) of the same molecule?
Its value is 0%.

And the “No of alive insects 1DAI” value (Euschistus heros; [3])?
The value was 10.0.

And the “Relative Efficacy 3DAI” value (Euschistus heros; [3])?
Its value is 5%.

And the “No of alive insects 3DAI” value (Euschistus heros; [3])?
Its value is 9.5.

What about the “Mortality of 4th instar nymphs” value (Nezara viridula; N. viridula 4th instar nymphs on cotton (BBCH 12), 300 ppm, 300 l/ha spray, three days after infestation, mean of 3 replicates) of the same molecule?
Its value is 78.6%.

And the “Mortality of Adults” value (Nezara viridula; N. viridula adults on cotton (BBCH 12), 300 ppm, 300 l/ha spray, three days after infestation, mean of 3 replicates)?
The value was 93.3%.
